Series [1] concerns the target T1, CYP1A (Phenacetin Substrate) (Homo sapiens, UniProt P05177).
T1 sequence (P05177 1-516): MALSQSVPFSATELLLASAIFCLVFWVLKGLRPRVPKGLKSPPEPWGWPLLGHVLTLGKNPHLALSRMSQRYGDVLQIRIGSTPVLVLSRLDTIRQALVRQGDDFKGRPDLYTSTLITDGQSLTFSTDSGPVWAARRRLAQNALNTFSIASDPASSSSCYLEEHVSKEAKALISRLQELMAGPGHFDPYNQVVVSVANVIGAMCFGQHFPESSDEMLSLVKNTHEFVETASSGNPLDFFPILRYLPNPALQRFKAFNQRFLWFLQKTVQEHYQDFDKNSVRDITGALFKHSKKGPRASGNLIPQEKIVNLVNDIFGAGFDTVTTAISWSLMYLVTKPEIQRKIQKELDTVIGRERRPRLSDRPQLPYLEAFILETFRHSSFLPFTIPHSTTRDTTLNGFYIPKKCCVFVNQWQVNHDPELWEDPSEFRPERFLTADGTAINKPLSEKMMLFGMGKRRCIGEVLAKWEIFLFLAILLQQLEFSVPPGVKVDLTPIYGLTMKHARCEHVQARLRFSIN
The series is described as follows: Cytochrome P450 Inhibition (CYP panel). In kind it is in vitro ADME. As to conditions: read-out: IC50 (estimated).

The target of another series is T2, CYP1A (Homo sapiens, UniProt P05177).
T2 sequence (P05177 1-516): T1 sequence (P05177 1-516)
Nature of the series: Cytochrome P450 Inhibition (CYP panel). In kind it is in vitro ADME. As to conditions: probe phenacetin.

The target in another series is HDAC9 (h) (Homo sapiens, UniProt Q9UKV0). The series is described as follows: Epigenetic enzyme assay, Histone deacetylase (HDACs). The series is classed as biochemical. As to conditions: read-out: % Inhibition of Control Values.
The next series concerns the target T3, JMJD1A (h) (Homo sapiens, UniProt Q9Y4C1).
T3 sequence (Q9Y4C1 1-1321): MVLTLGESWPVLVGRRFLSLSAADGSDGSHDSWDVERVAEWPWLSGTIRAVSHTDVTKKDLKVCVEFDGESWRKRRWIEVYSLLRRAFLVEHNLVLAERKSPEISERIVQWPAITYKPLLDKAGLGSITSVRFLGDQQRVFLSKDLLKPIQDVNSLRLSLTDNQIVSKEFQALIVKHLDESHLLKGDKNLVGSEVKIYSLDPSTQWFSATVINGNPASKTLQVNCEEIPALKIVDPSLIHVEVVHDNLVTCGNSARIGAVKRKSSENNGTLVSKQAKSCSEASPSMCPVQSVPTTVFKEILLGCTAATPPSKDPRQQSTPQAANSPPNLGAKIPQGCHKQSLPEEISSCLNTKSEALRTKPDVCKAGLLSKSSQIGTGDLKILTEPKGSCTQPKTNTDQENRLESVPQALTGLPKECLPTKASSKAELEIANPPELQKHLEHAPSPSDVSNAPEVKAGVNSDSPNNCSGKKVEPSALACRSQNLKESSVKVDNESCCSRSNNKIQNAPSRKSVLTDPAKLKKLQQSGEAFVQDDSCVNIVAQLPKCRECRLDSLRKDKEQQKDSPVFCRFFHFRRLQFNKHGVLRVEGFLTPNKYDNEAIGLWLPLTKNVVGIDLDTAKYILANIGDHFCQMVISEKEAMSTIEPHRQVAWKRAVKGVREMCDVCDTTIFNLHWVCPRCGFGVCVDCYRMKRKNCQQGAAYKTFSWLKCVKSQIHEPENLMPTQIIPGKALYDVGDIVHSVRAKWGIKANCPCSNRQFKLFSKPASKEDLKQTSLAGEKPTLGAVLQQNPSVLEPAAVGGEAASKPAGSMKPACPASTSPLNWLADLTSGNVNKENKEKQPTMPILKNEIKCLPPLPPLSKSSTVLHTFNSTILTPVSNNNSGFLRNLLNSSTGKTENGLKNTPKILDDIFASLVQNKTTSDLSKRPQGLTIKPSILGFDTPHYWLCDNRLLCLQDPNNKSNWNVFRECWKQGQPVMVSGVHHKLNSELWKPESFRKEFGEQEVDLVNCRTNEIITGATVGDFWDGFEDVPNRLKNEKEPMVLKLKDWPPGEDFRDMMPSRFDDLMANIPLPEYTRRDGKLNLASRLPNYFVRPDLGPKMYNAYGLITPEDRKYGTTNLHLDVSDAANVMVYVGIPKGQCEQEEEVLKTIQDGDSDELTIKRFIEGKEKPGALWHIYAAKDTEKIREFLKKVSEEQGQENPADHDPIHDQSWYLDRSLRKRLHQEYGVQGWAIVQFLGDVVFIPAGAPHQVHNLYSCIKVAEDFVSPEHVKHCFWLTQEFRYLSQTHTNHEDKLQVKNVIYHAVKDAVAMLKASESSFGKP
Nature of the series: Epigenetic enzyme assay, Demethylases (KDMs). In kind it is biochemical. Conditions: for inhibition at 10 µM: read-out: % Inhibition of Control Values.

The target of another series is T4, HDAC8 (h) (Homo sapiens, UniProt Q9BY41).
T4 sequence (Q9BY41 1-377): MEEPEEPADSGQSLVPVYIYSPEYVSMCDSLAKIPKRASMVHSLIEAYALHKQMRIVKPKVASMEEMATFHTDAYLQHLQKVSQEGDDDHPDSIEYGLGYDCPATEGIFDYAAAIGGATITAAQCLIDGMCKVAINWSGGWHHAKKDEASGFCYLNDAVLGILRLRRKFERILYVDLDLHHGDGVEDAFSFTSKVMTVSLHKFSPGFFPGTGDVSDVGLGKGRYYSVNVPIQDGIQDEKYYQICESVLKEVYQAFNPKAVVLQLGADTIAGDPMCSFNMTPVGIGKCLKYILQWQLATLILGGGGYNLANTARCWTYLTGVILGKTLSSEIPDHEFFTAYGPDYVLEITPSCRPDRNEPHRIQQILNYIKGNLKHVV
The series is described as follows: Epigenetic enzyme assay, Histone deacetylase (HDACs). The series is classed as biochemical. Conditions: read-out: % Inhibition of Control Values.

The next series has as its target T5, BRPF1-1 (h) bromodomain (Homo sapiens, UniProt P55201).
T5 construct: Bromodomain
T5 sequence (P55201 628-732 limits assumed): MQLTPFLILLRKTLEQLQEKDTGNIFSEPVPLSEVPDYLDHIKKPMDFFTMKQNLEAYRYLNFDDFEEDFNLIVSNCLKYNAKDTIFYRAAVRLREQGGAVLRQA
Nature of the series: Epigenetic binding assay, Bromodomain. As to conditions: 10 μM; read-out: % Inhibition of Control Specific Binding.

Setting [2] is: human, human liver microsomes, read-out: % inhibition.
Where [3] appears, read: CYP1A (phenacetin sub.), Human liver microsomes, read-out: % Inhibition of Control Values.

SMILES strings stand for the structures. pIC50: −log10 of the molar value. Read-outs that look alike come from different tables or passages of the source. Where only a bound is given, the exact number is not on record here.

Chain of HDAC9 (h) (Q9UKV0 whole entry): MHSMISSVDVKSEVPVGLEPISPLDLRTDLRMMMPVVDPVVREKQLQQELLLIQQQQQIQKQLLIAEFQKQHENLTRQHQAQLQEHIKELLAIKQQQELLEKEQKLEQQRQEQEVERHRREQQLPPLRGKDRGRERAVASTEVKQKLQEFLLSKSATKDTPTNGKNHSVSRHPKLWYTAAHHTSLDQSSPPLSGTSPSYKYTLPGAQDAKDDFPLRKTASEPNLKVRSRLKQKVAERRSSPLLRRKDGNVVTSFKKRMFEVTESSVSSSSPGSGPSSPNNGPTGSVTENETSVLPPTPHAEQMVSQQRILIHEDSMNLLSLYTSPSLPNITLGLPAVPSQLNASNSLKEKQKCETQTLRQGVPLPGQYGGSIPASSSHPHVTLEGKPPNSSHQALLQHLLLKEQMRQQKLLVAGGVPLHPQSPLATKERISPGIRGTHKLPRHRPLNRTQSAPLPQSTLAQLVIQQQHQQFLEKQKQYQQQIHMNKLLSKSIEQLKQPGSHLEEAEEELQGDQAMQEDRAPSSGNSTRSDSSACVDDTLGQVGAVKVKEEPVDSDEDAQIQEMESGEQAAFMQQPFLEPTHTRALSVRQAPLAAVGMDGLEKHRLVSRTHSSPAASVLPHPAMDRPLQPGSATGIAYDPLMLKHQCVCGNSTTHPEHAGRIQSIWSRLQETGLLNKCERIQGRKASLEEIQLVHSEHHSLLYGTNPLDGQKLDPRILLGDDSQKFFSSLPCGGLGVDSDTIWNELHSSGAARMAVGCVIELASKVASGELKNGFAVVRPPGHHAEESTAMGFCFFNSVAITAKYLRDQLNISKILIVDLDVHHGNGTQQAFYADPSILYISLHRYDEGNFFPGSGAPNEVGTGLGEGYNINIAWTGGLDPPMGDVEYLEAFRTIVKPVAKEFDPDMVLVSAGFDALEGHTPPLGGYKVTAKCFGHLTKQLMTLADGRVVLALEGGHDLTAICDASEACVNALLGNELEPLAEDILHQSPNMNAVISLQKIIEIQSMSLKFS

The pIC50 is the negative decadic logarithm of the IC50, by convention in mol/L. Usually inhibition stands for the change of the read-out against control, counted positive when it falls. Take `CC(C)=CCC[C@H](C)[C@@H]1CC[C@@H](C)c2c1cc(C)c(O)c2O` [Compound 4, 7,8-dihydroxyserrulat-14-ene]: the pIC50 in series [1] is greater than 5.00. The inhibition at 10 µM at CYP1A (setting [2]) lay in the range of 63 to 92%. Also, on CYP1A (setting [3]), the inhibition at 1 µM was 14% and the inhibition at 10 µM came to 85%.

`CC(C)=CCC[C@@H]1COc2c(C)cc(O)c3c2[C@H]1CC[C@H]3C` [Compound 3, 5,18-epoxy-8-hydroxyserrulat-14-ene]: the inhibition at 10 µM at HDAC9 (h) was -9%; on JMJD1A (h) (10 μM) it was -1%; at HDAC8 (h) it was 0%; on BRPF1-1 (h) bromodomain, -4%.

Consider `CC(C)=CCC[C@@H]1C(O)Oc2c(C)cc(O)c3c2[C@H]1CC[C@H]3C` (stereo partly shown) [Compound 2, 5,18-epoxyserrulat-14-en-8,18-diol], for which, in series [1], the pIC50 was greater than 5.00. Moreover, the inhibition at 1 µM at CYP1A (setting [2]) and at CYP1A (setting [3]) was 38% in each case. Further, the inhibition at 10 µM on CYP1A (setting [2]) was 63 to 92%; at CYP1A (setting [3]), 63%; at HDAC9 (h), -1%; at JMJD1A (h) (10 μM), 37%; on HDAC8 (h), -19%; on BRPF1-1 (h) bromodomain, -25%.

Take `CC(C)=CCC[C@H](CO)[C@@H]1CC[C@@H](C)c2c1cc(C)c(O)c2O` [Compound 1, 7,8,18-trihydroxyserrulat-14-ene]: the pIC50 in series [1] is greater than 5.00; at JMJD1A (h) (Table 11, inhibition/concentration-response curve), 5.35. In addition, the inhibition at 1 µM on CYP1A (setting [2]) and at CYP1A (setting [3]) was 28% in each case. The inhibition at 10 µM was 63 to 92% at CYP1A (setting [2]); 92% on CYP1A (setting [3]); -50% at HDAC9 (h); 80% on JMJD1A (h) (10 μM); -8% on HDAC8 (h); -25% on BRPF1-1 (h) bromodomain. In addition, the “% Inhibition of Control Values” at JMJD1A (h) (10 μM) is reported as “significant inhibitory activity”.

These data come from patent US11331299B2, “Medicinal use of serrulatane diterpenes” (The University of Sydney, priority 2016, dated 2022).
